Experimental findings from patent US20220062299A1, “USE OF GLUCOCORTICOID STEROIDS IN PREVENTING AND TREATING CONDITIONS OF MUSCLE WASTING, AGING AND METABOLIC DISORDER” (NORTHWESTERN UNIVERSITY, priority 2018, published 2022) are described below.

This series deals with Dysf-null mice. The series can be described thus: Dosing of metabolic and endocrine biomarkers in blood, serum and tissues, Dysf-null mice, 32 weeks weekly prednisone. The series is classed as in vivo. The method, then: Animal handling and steroid regimens. Mice were housed in a pathogen-free dedicated vivarium in accordance with Institutional Animal Care and Use Committee (IACUC) guidelines. Euthanasia was performed through carbon dioxide inhalation followed by cervical dislocation and heart removal. All methods using living animals in this study were performed in ethical accordance with the American Veterinary Medical Association (AVMA) and under protocols fully approved by both the Institutional Animal Care and Use Committee (IACUC) at Northwestern University Feinberg School of Medicine (protocol number ISO00000761). Consistent with the ethical approvals, all efforts were made to minimize suffering. Mice were fed ad libitum with Mouse Breeder Sterilizable Diet (#7904; Harlan Teklad, Indianapolis, Ind.) and maintained on a 12-hour light/dark cycle. mdx mice from the DBA/2J background were obtained from the Jackson Laboratory (Bar Harbor, Me.; stock #013141) and interbred. Male mice were used for reported experiments. Age at start was approximately 6 months for short-term experiments, approximately 6 weeks for long-term experiments. Dysferlin-null (Dysf-null) mice from the 129T2/SvEmsJ background were previously characterized (Demonbreun et al., 2011; Demonbreun et al., 2014). Age at start was approximately 9 months for long-term experiments. For experiments with Dysf-null and wildtype mice, both females and males (approximately 1:1 ratio) were randomized in treatment groups. […] Dosing was based on weekly weight measurements (1 mg/kg body weight, (Sali et al., 2012)) in 100 μl total PBS volume per dose. […] On injection days, stock solutions stored at −20° C. were diluted into sterile Eppendorf tubes containing sterile phosphate buffered saline (PBS) (#14190; Thermo Fisher, Waltham, Mass.). Puromycin (cat #A1113803, Thermo Scientific, Waltham, Mass.) was administered i.p. as 0.040 μmol/body g, and tissues were snap-frozen 30 minutes after injection. Sterile BD Micro-Fine IV Insulin Syringes (#14-829-1A; Fisher Scientific, Waltham, Mass.) were used to inject the intraperitoneal cavity of non-sedated animals. All animal analyses both during treatment and at endpoint were conducted blinded to treatment groups.
Dosing of metabolic and endocrine biomarkers. Glycogen was quantitated using the Glycogen Assay Kit (#ab65620; Abcam, Cambridge, Mass.) from approximately 25 mg frozen-pulverized whole tissue, following manufacturer's instructions and internal standards for calculating μg/mg values. For measurement of whole-tissue ATP/NAD^+ levels, approximately 25 mg frozen-pulverized tissue was extracted in 10% perchloric acid and neutralized in 0.75 M K2CO3, as previously described (Ramsey et al., 2009). NAD+ and ATP were measured by high-pressure liquid chromatography (HPLC) with Shimadzu LC-20A pump (Shimadzu Scientific Instr Inc, Addison, Ill.) and UV-VIS detector, using a Supelco LC-18-T column (15 cm×[…]; #58970-U; Millipore-Sigma, St Louis, Mo.). […] Corticosterone was measured in mouse serum and cortisol was measured in human serum using dedicated ELISA kits (#ADI-900-097, Enzo Life Science, Farmingdale, N.Y.; #K7430-100, BioVision, Milpitas, Calif.) according to manufacturer's instructions and internal standards to calculate ng/ml values. Insulin levels were quantitated in mouse and human serum with species-specific ELISA kits (#10-1247-01 (mouse-specific); #10-1113-01 (human-specific); Mercodia, Uppsala, Sweden), following manufacturer's instructions and internal standards to calculate ng/ml values. Free fatty acids were quantitated using Enzychrom Free Fatty Acid Assay kit (#EFFA-100; BioAssay Systems, Hayward, Calif.), following kit's instructions and standards to calculate μM (serum) and nmol/mg (tissue) values.

[1] abbreviates: weekly prednisone, mean ± s.e.m.

In the case of `C[C@]12C=CC(=O)C=C1CC[C@@H]1[C@@H]2C(=O)C[C@@]2(C)[C@H]1CC[C@]2(O)C(=O)CO` [prednisone, Prednisone], under “weekly prednisone”, the “BCAA utilization in muscle” value was “improved”; the “endpoint levels of ATP, NAD+, and glycogen in muscle and heart” value is “increased”. The same compound yielded a fasting glycemia (weekly prednisone 1 mg/kg i.p., mean ± s.e.m) of 109 ± 3.17 mg/dL. Also, under setting [1], the resting lactate is on record as 3.36 ± 0.21 mM, the “serum BCAA” value was found to be 419 ± 9.95 µM, the serum corticosterone turned out to be 143 ± 5.2 ng/mL and the serum creatine kinase was found to be 1.31 ± 0.04 U/ml. In addition, under setting [1], the “serum free fatty acids” value is 475 ± 9.18 µM; the “serum β-hydroxybutyrate” value was found to be 323 ± 9.61 µM; the “tissue BCAA, diaphragm” value is on record as 45.4 ± 1.06 nmol/mg; the “tissue BCAA, heart” value was found to be 0.91 ± 0.03 nmol/mg. Under setting [1], the “tissue BCAA, omental fat” value is recorded as 24.5 ± 0.8 nmol/mg; the “tissue BCAA, quadriceps” value is 90.9 ± 2.58 nmol/mg; the “tissue free fatty acids, diaphragm” value was 0.753 ± 0.07 nmol/mg; the “tissue free fatty acids, heart” value is on record as 0.438 ± 0.05 nmol/mg. Besides, under setting [1], the “tissue free fatty acids, omental fat” value is 3.49 ± 0.38 nmol/mg; the “tissue free fatty acids, quadriceps” value was found to be 1.05 ± 0.06 nmol/mg; the “tissue β-hydroxybutyrate, diaphragm” value is recorded as 26.5 ± 2.11 nmol/mg; the “tissue β-hydroxybutyrate, heart” value is reported as 11.9 ± 0.51 nmol/mg. Moreover, under setting [1], the “tissue β-hydroxybutyrate, omental fat” value came out at 30.2 ± 0.85 nmol/mg and the “tissue β-hydroxybutyrate, quadriceps” value was determined as 43.8 ± 2.23 nmol/mg.
